Values joined by “and” are separate entries in the source; they are usually repeats but may differ in a detail not shown here. Identical values can stand only once. Inconclusive results and toxic doses are left out.

The experiment has as its system B6C3F1 mice, ip Sarcoma M5076, median survival T/C. In words: NCI In Vivo Anticancer Drug Screen. Data for tumor model Sarcoma M5076 (intraperitoneal) in B6C3F1 mice. The note with it: endpoint: median survival time, schedule: Q04DX004 (ip), higher = longer survival. The method, boiled down:
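Survival measured in treated (T) and vehicle control (C) mice with transplantable tumour; result given as T divided by C.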

Where [1] appears, read: dose: 50.0 mg/kg/injection, vehicle: Klucel (hydroxypropylcellulose) (HPC).
The mark [2] stands for this setting: dose: 100.0 mg/kg/injection, vehicle: Klucel (hydroxypropylcellulose) (HPC).
The mark [3] stands for this setting: dose: 200.0 mg/kg/injection, vehicle: Klucel (hydroxypropylcellulose) (HPC).
[4] abbreviates: dose: 25.0 mg/kg/injection, vehicle: water.
Where [5] appears, read: dose: 50.0 mg/kg/injection, vehicle: water.
Where [6] appears, read: dose: 100.0 mg/kg/injection, vehicle: water.
Where [7] appears, read: dose: 25.0 mg/kg/injection, vehicle: saline.
Setting [8] is: dose: 50.0 mg/kg/injection, vehicle: saline.

In the case of `CCOC(=O)/C=C1/SC(N2CCCCC2)C(=O)N1CC` (stereo unspecified), the T/C reads like this: under setting [1], 96 % of control; under setting [2], 96 % of control; under setting [3], 97 % of control; (dose: 400.0 mg/kg/injection, vehicle: Klucel (hydroxypropylcellulose) (HPC)) 94 % of control.

Consider `COc1ccc(-c2cc(C(=O)Nc3cc(C(F)(F)F)cc(C(F)(F)F)c3)c3ccccc3n2)cc1`, for which the T/C was 101 % of control (dose: 50.0 mg/kg/injection, vehicle: DMSO); 94 % of control (dose: 100.0 mg/kg/injection, vehicle: DMSO); 110 % of control (dose: 200.0 mg/kg/injection, vehicle: DMSO); 111 % of control (dose: 400.0 mg/kg/injection, vehicle: DMSO).

As to `CC(=O)OCc1cc(=O)n(C)c2c3c4c(cc12)c(C)cc(=O)n4CO3`, the T/C is 103 % of control (dose: 10.0 mg/kg/injection, vehicle: Klucel (hydroxypropylcellulose) (HPC)); 112 % of control (dose: 20.0 mg/kg/injection, vehicle: Klucel (hydroxypropylcellulose) (HPC)); 104 % of control (dose: 40.0 mg/kg/injection, vehicle: Klucel (hydroxypropylcellulose) (HPC)); 111 % of control (dose: 80.0 mg/kg/injection, vehicle: Klucel (hydroxypropylcellulose) (HPC)).

For `O=NNc1ncccn1`, the T/C was 101 % of control under setting [4]; 100 % of control under setting [5]; 97 % of control under setting [6]; 100 % of control (dose: 200.0 mg/kg/injection, vehicle: water); 110 % of control (dose: 400.0 mg/kg/injection, vehicle: water).

On to `Oc1cccc2ccccc12`, for which the T/C under setting [4] is 100 % of control, the T/C under setting [5] was 105 % of control and the T/C under setting [6] was 98 % of control.

Consider `N#CC1C(=O)NC(=S)NC1CCc1ccccc1` (stereo unspecified), for which the T/C is, setting by setting: under setting [1], 95 % of control; under setting [2], 100 % of control; under setting [3], 108 % of control.

For `O=c1c2cc3ccccc3cc2c(=O)n2n1CC=CC2`, the T/C is 100 % of control (dose: 20.31 mg/kg/injection, vehicle: Klucel (hydroxypropylcellulose) (HPC)); 99 % of control (dose: 40.63 mg/kg/injection, vehicle: Klucel (hydroxypropylcellulose) (HPC)); 99 % of control (dose: 81.25 mg/kg/injection, vehicle: Klucel (hydroxypropylcellulose) (HPC)); 99 % of control (dose: 162.5 mg/kg/injection, vehicle: Klucel (hydroxypropylcellulose) (HPC)); 99 % of control (dose: 325.0 mg/kg/injection, vehicle: Klucel (hydroxypropylcellulose) (HPC)).

As for `O=c1c(O)c(O)c1=O.[NH2-].[NH2-].[NH2-].[NH2-].[NH2-].[Ru+5]`, the T/C reads like this: (dose: 6.25 mg/kg/injection, vehicle: suspension in saline) 98 % of control; (dose: 12.5 mg/kg/injection, vehicle: suspension in saline) 97 % of control; (dose: 25.0 mg/kg/injection, vehicle: suspension in saline) 98 % of control.

Consider `O=Cc1ccc(O)c(O)c1`, for which the T/C (dose: 50.0 mg/kg/injection, vehicle: saline with Tween-80) was 100 % of control; the T/C (dose: 100.0 mg/kg/injection, vehicle: saline with Tween-80) was 96 % of control; the T/C (dose: 200.0 mg/kg/injection, vehicle: saline with Tween-80) was 104 % of control; the T/C (dose: 400.0 mg/kg/injection, vehicle: saline with Tween-80) is 104 % of control.

For `CN=NN(C)C(=O)NC`, the T/C under setting [7] is 158 % of control; the T/C (dose: 30.0 mg/kg/injection, vehicle: saline) is 160 % of control; the T/C under setting [8] is 151 % of control and 152 % of control and 177 % of control; the T/C (dose: 83.0 mg/kg/injection, vehicle: saline) was 160 % of control and 162 % of control.

In the case of `Cc1ccc(N=NN(C)C)cc1NC(=O)NCC(=O)OC(C)(C)C`, the T/C reads like this: (dose: 16.25 mg/kg/injection, vehicle: saline with Tween-80) 103 % of control; (dose: 32.5 mg/kg/injection, vehicle: saline with Tween-80) 98 % of control; (dose: 65.0 mg/kg/injection, vehicle: saline with Tween-80) 111 % of control; (dose: 130.0 mg/kg/injection, vehicle: saline with Tween-80) 108 % of control; (dose: 260.0 mg/kg/injection, vehicle: saline with Tween-80) 118 % of control.

For the compound `NC(=O)c1ncn(C2CC3[O][Sn]([c]4ccccc4)([c]4ccccc4)[O]CC3O2)n1` (stereo unspecified), the T/C is 95 % of control (dose: 31.13 mg/kg/injection, vehicle: distilled water + Tween-80); 104 % of control (dose: 62.5 mg/kg/injection, vehicle: distilled water + Tween-80); 114 % of control (dose: 125.0 mg/kg/injection, vehicle: distilled water + Tween-80); 114 % of control (dose: 250.0 mg/kg/injection, vehicle: distilled water + Tween-80); 122 % of control (dose: 500.0 mg/kg/injection, vehicle: distilled water + Tween-80).

Regarding `Cc1ccc(C(=O)Nc2ccc(S(=O)(=O)O)c3cc(S(=O)(=O)O)cc(S(=O)(=O)O)c23)cc1NC(=O)c1cccc(NC(=O)Nc2cccc(C(=O)Nc3cc(C(=O)Nc4ccc(S(=O)(=O)O)c5cc(S(=O)(=O)O)cc(S(=O)(=O)O)c45)ccc3C)c2)c1`, the T/C was 105 % of control under setting [7]; 108 % of control and 109 % of control under setting [8]; 112 % of control (dose: 100.0 mg/kg/injection, vehicle: saline).

In the case of `N=C(N)c1nn(C2OC(CO)C(O)C2O)c2nc[nH]c(=O)c12` (stereo unspecified), the T/C runs as follows: (dose: 6.25 mg/kg/injection, vehicle: Klucel + Tween-80) 123 % of control; (dose: 12.5 mg/kg/injection, vehicle: Klucel + Tween-80) 109 % of control; (dose: 18.0 mg/kg/injection, vehicle: other) 106 % of control; (dose: 22.0 mg/kg/injection, vehicle: Klucel + Tween-80) 112 % of control; (dose: 30.0 mg/kg/injection, vehicle: other) 107 % of control; (dose: 36.0 mg/kg/injection, vehicle: Klucel + Tween-80) 120 % of control. The T/C is 105 % of control (dose: 50.0 mg/kg/injection, vehicle: other); 117 % of control (dose: 60.0 mg/kg/injection, vehicle: Klucel + Tween-80); 105 % of control (dose: 83.33 mg/kg/injection, vehicle: other); 117 % of control (dose: 101.0 mg/kg/injection, vehicle: Klucel + Tween-80).

In the case of `COc1ccc(-n2c(SCC(=O)NC(=O)Nc3ccccc3)nc3c(Br)cc(Br)cc3c2=O)cc1`, the T/C (dose: 37.5 mg/kg/injection, vehicle: Klucel (hydroxypropylcellulose) (HPC)) is 91 % of control; the T/C (dose: 75.0 mg/kg/injection, vehicle: Klucel (hydroxypropylcellulose) (HPC)) is 93 % of control; the T/C (dose: 150.0 mg/kg/injection, vehicle: Klucel (hydroxypropylcellulose) (HPC)) is 89 % of control; the T/C (dose: 600.0 mg/kg/injection, vehicle: Klucel (hydroxypropylcellulose) (HPC)) is 90 % of control.
